US20210177732A1, “COMBINATION OF EXTRACTS OF QUINQUINA AND OF LEONTOPODIUM ALPINUM AND OF THE MANGANESE SALT OF L-PYRROLIDONE CARBOXYLIC ACID IN THE TREATMENT OF ALOPECIA” (PIERRE FABRE DERMO-COSMETIQUE, priority 2018, published 2021)

B1: Wnt3a: positive control, Wnt3a protein at 10 nM (protein, UniProt P56704 19-352, looked up)
Protein Wnt-3a: SYPIWWSLAVGPQYSSLGSQPILCASIPGLVPKQLRFCRNYVEIMPSVAEGIKIGIQECQHQFRGRRWNCTTVHDSLAIFGPVLDKATRESAFVHAIASAGVAFAVTRSCAEGTAAICGCSSRHQGSPGKGWKWGGCSEDIEFGGMVSREFADARENRPDARSAMNRHNNEAGRQAIASHMHLKCKCHGLSGSCEVKTCWWSQPDFRAIGDFLKDKYDSASEMVVEKHRESRGWVETLRPRYTYFKVPTERDLVYYEASPNFCEPNPETGSFGTRDRTCNVSSHGIDGCDLLCCGRGHNARAERRREKCRCVFHWCCYVSCQECTRVYDVHTCK

Test system: Wnt/β-catenin pathway
Assay: Activation of the Wnt/β-catenin pathway, TCF/LEF luciferase reporter in dermal papilla cells derived from human hair follicles
Format: cell-based
Details: human follicular dermal papilla cells, 24 h incubation, Wnt3a 10 nM, Mn-PCA 500 μM, edelweiss 30 μg/mL; for Average RLU (luminescence due to luciferase expression): average of 3 donors (6 experiments), cinchona 10 μg/mL, combination at same concentrations, control 410.2; for activation of the Wnt-β-catenin pathway versus control: combination 10 μg/mL + 500 μM + 30 μg/mL
Protocol: The aim of this study is to evaluate the effects of the combination of an extract of cinchona, manganese salt of L-pyrrolidone carboxylic acid and an extract of Leontopodium alpinum on the activation of the Wnt/β-catenin pathway on dermal papilla cells derived from human hair follicles.
The studies are carried out on human cells derived from the dermal papillae of the follicles of three donors. The cells are inoculated in 96-well plates and cultured for 24 h with the necessary supplements. The cells are incubated with specific reagents in order to be transfected with a lentivirus (expressing the luciferase gene under the control of the Wnt/β-catenin promoter (TCF/LEF transcriptional response element). The transfected cells are incubated for 24 hours with the products to be tested, i.e. either with an extract of cinchona (10 μg/ml) diluted in DMSO, or with the manganese salt of L-pyrrolidone carboxylic acid (500 μM) diluted in water, or with an extract of Leontopodium alpinum (30 μg/ml) also diluted in water, or with the combination of the three compounds at the same concentrations as above. The cinchona used in this study is harvested in Ecuador, in the forests of Echeandia. The extract of Leontopodium alpinum tested in this study comes from a variety called Leontopodium alpinum Helvetia. The extract tested corresponds to the commercial material Alpaflor® from the supplier DSM. The manganese salt of L-pyrrolidone carboxylic acid tested in this study corresponds to the commercial material Mangalidone® from the supplier Solabia. It is obtained by cyclisation of glutamic acid of plant origin. Its INCI name is manganese PCA and its CAS number is 29193-02-2. A positive control (Wnt3a protein at 10 nM) is also tested. Activation of the Wnt/β-catenin pathway is highlighted by the quantification of luminescence due to luciferase expression.
A statistical analysis is performed, an intergroup comparison is made by a repeated measures ANOVA followed by Dunnett's post-test on the raw data.

| Molecule | Average RLU (luminescence due to luciferase expression) | activation of the Wnt-β-catenin pathway versus control |
| --- | --- | --- |
| O=C1CC[C@@H](C(=O)[O-])N1.O=C1CC[C@@H](C(=O)[O-])N1.[Mn+2] [Mn-PCA (L), manganese salt of L-pyrrolidone carboxylic acid] | 735.2 RLU | +77±17% |
| B1 | 2366.9 RLU | +451±93% |
